Measurements published in patent publication US8912318B2, “Nucleobase-functionalized conformationally restricted nucleotides and oligonucleotides for targeting nucleic acids” (University of Idaho, priority 2009, dated 2014).
Where two headings read alike, the source gives them in different places.

What was measured:
[1] = system: complementary or mismatched DNA targets; test: Fluorescence quantum yields and extinction coefficients with DNA targets; format: physicochemical
[2] = system: dsDNA target (SEQ ID NO: 2 : SEQ ID NO: 3); test: UV thermal denaturation of triplexes formed by TFOs with dsDNA; format: binding; details: for Tm of triplex: pH 7.0 phosphate buffer, 140 mM KCl, 1.0 μM each strand; for ΔTm/mod of triplex: relative to reference DNA TFO T1, per modification
[3] = system: dsDNA target (SEQ ID NO: 4 : SEQ ID NO: 5), B:B′ = A:T; test: Thermal denaturation of matched triplexes in the presence of Mg2+ ions; format: binding; details: A:T (match); 10 mM MgCl2
Procedure: (§1) Concentrations of all TFOs were determined using the extinction coefficient of 118500 L×(mol×cm)-1. 1 mL solution containing 1.0 nmol of each strand was denatured by heating and subsequently cooled to the starting temperature of the experiment in quartz optical cells with a path-length of 1.0 cm. Thermal denaturation profiles were recorded on a Cary 100 UV/VIS spectrophotometer equipped with a 12-cell Peltier temperature controller using a ramp of 0.5° C./min. Thermal denaturation temperatures (Tm) for triplex to duplex transitions were determined as the first derivative of difference thermal denaturation profiles (dA260 vs. T), which were obtained by subtracting the thermal denaturation profile of the dsDNA target (always included as one of the samples in multicell holder of UV-Vis spectrophotometer) from the raw thermal denaturation profile of the TFO+dsDNA (FIG. 13). Reported Tm-values are an average of at least two experiments within ±1.0° C.

[4] = system: Hoogsteen mismatched dsDNA targets (SEQ ID NO: 4 : SEQ ID NO: 5), B:B′ = T:A, C:G, G:C; test: Thermal denaturation of Hoogsteen mismatched triplexes in the presence of Mg2+ ions; format: binding; details: for Tm of triplex: 10 mM MgCl2; for ΔTm: change relative to matched triplex
Procedure: as §1

[5] = system: complementary or mismatched DNA targets; details: cited from earlier work
[6] = system: complementary DNA; test: UV thermal denaturation of 13-mer fluorophore probes with complementary DNA; format: binding; details: B = A
[7] = system: mismatched DNA targets; test: UV thermal denaturation of 13-mer fluorophore probes with mismatched DNA targets; format: binding; details: for Tm / ΔTm: DNA: 3′-d(GCG TTG BGT TGC G); for ΔTm: relative to B = A; for mismatch ΔTm: mismatched vs complementary duplex
[8] = system: complementary or mismatched DNA targets; test: Steady-state fluorescence emission intensity with DNA targets; details: for discrimination factor Im/Imm, range: intensity of duplex with complementary DNA divided by intensity of SSP or mismatched duplexes
[9] = system: complementary RNA; test: UV thermal denaturation of 13-mer probes with complementary RNA; format: binding; details: B = A
[10] = system: mismatched RNA targets; test: UV thermal denaturation of 13-mer probes with mismatched RNA targets; format: binding
[11] = vs. the C-mismatched DNA target
[12] = complementary DNA, [Na+] = 110 mM, pH 7.0, 1.0 μM each strand

Molecule: O=C(NCC#Cc1cn([C@H]2C[C@H](O)[C@@H](CO)O2)c(=O)[nH]c1=O)c1ccc2ccc3cccc4ccc1c2c34 [P″, 5-[3-(1-pyrenecarboxamido)propynyl]-2′-deoxyuridine]
- Fluorescence quantum yield (φF) ([1]; DNA target B = A, T = 5° C.): 0.33-0.58

Molecule: X1′: TFO TTT TT^mC TBT ^mCT^mC T^mCT, B = X′ (DNA TTTTTNTNTNTNTNT; 5-methyl-C, modified nucleotide X', chemistry not fully specified) [reference compound]
- Tm of triplex [2]: 35.5 °C
- ΔTm/mod of triplex [2]: +6.5 °C
- Tm of triplex [3]: 45.0 °C
- Tm of triplex ([4]; C:G mismatch): 15.5 °C
- ΔTm ([4]; C:G mismatch): −29.5 °C
- Tm of triplex ([4]; G:C mismatch): 22.5 °C
- ΔTm ([4]; G:C mismatch): −22.5 °C
- Tm of triplex ([4]; T:A mismatch): 10.0 °C
- ΔTm ([4]; T:A mismatch): −35.0 °C

Molecule: c1ccc(-c2c3ccccc3c(-c3ccccc3)c3ccccc23)cc1 [9,10-diphenylanthracene]
- fluorescence quantum yield ΦF [5]: 0.95

Molecule: ON10: 5′-CG CAA CPC AAC GC (DNA CGCAACNCAACGC; listed as DNA, chemistry not fully specified)
- Tm ([6]; DNA: 3′-d(GCG TTG BGT TGC G)): 52.5 °C
- Tm ([7]; B = C): 43.0 °C
- ΔTm ([7]; B = C): (−9.5) ° C.
- Tm ([7]; B = G): 48.0 °C
- ΔTm ([7]; B = G): (−4.5) ° C.
- Tm ([7]; B = T): 46.0 °C
- ΔTm ([7]; B = T): (−6.5) ° C.
- discrimination factor Im/Imm, range [8]: 7.3-15.9

Molecule: ON14: 5′-CG CAA CP′C AAC GC (DNA CGCAACNCAACGC; modified nucleotide P', chemistry not fully specified)
- Tm ([6]; DNA: 3′-d(GCG TTG BGT TGC G)): 51.5 °C
- Tm ([7]; B = C): 40.5 °C
- ΔTm ([7]; B = C): (−11.5) ° C.
- Tm ([7]; B = G): 44.5 °C
- ΔTm ([7]; B = G): (−7.0) ° C.
- Tm ([7]; B = T): 44.5 °C
- ΔTm ([7]; B = T): (−7.0) ° C.
- ΦF,m/ΦF,mm [1, 11]: ~3.2
- discrimination factor Im/Imm [8, 11]: 5.8

Molecule: Y1′: TFO TTT TT^mC TBT ^mCT^mC T^mCT, B = Y′ (DNA TTTTTNTNTNTNTNT; 5-methyl-C, modified nucleotide Y', chemistry not fully specified)
- Tm of triplex [2]: 37.5 °C
- ΔTm/mod of triplex [2]: +8.5 °C
- Tm of triplex [3]: 47.5 °C
- Tm of triplex ([4]; C:G mismatch): 13.5 °C
- ΔTm ([4]; C:G mismatch): −34.0 °C
- Tm of triplex ([4]; G:C mismatch): 24.5 °C
- ΔTm ([4]; G:C mismatch): −23.0 °C
- Tm of triplex ([4]; T:A mismatch): 12.0 °C
- ΔTm ([4]; T:A mismatch): −35.5 °C

Molecule: O=C(O)CCCc1ccc2ccc3cccc4ccc1c2c34 [pyrenebutanoic acid]
- fluorescence quantum yield ΦF ([1]; in MeOH, relative to 9,10-diphenylanthracene): 0.069
- fluorescence quantum yield ΦF, reported value [5]: 0.065

Molecule: ON16: 5′-CG CAA TP′T AAC GC (DNA CGCAATNTAACGC; modified nucleotide P', chemistry not fully specified)
- discrimination factor Im/Imm, range [8]: 2.9-11.4

Molecule: ON2: unmodified reference strand 5′-CG CAA CTC AAC GC (DNA CGCAACTCAACGC; DNA, backbone not given here) [reference compound]
- Tm ([6]; DNA: 3′-d(GCG TTG BGT TGC G)): 55.5 °C
- Tm [6, 12]: 55.5 °C
- mismatch ΔTm ([7]; DNA target B = C): −13.5 °C
- mismatch ΔTm ([7]; DNA target B = G): −7.0 °C
- mismatch ΔTm ([7]; DNA target B = T): −9.0 °C
- Tm ([7]; B = C): 42.0 °C
- ΔTm ([7]; B = C): (−13.5) ° C.
- Tm ([7]; B = G): 48.5 °C
- ΔTm ([7]; B = G): (−7.0) ° C.
- Tm ([7]; B = T): 46.5 °C
- ΔTm ([7]; B = T): (−9.0) ° C.
- Tm [9]: 51.5 °C
- mismatch DTm ([10]; RNA target B = C): −15.5 °C
- mismatch DTm ([10]; RNA target B = G): −3.0 °C
- mismatch DTm ([10]; RNA target B = U): −13.5 °C

Molecule: SEQ ID NO: 10: 5′-d(CGC AAC γCA ACG C (DNA CGCAACNCAACGC; γ modified nucleotide, chemistry not fully specified)
- Tm ([6]; DNA: 3′-d(GCG TTG BGT TGC G)): 47.0 °C
- Tm ([7]; B = C): 45.5 °C
- ΔTm ([7]; B = C): (−1.5) ° C.
- Tm ([7]; B = G): 46.5 °C
- ΔTm ([7]; B = G): (-0.5) ° C.
- Tm ([7]; B = T): 45.5 °C
- ΔTm ([7]; B = T): (−1.5) ° C.

Molecule: SEQ ID NO: 11: 5′-d(CGC AAC αCA ACG C (DNA CGCAACNCAACGC; α modified nucleotide, chemistry not fully specified)
- Tm ([6]; DNA: 3′-d(GCG TTG BGT TGC G)): 44.5 °C
- Tm ([7]; B = C): 43.0 °C
- ΔTm ([7]; B = C): (−1.5) ° C.
- Tm ([7]; B = G): 46.0 °C
- ΔTm ([7]; B = G): (+1.5) ° C.
- Tm ([7]; B = T): 45.0 °C
- ΔTm ([7]; B = T): (+0.5) ° C.

Molecule: ON1: unmodified reference strand 5′-CG CAA ATA AAC GC (DNA CGCAAATAAACGC; unmodified DNA) [reference compound]
- Tm [6, 12]: 48.5 °C
- mismatch ΔTm ([7]; DNA target B = C): −10.0 °C
- mismatch ΔTm ([7]; DNA target B = G): −5.0 °C
- mismatch ΔTm ([7]; DNA target B = T): −9.0 °C

Molecule: ON11: 5′-CG CAA GPG AAC GC (DNA CGCAAGNGAACGC; listed as DNA, chemistry not fully specified)
- discrimination factor Im/Imm, range [8]: 8.3-41.9

Molecule: SEQ ID NO: 9: 5′-d(CGC AAC βCA ACG C (DNA CGCAACNCAACGC; β modified nucleotide, chemistry not fully specified)
- Tm ([6]; DNA: 3′-d(GCG TTG BGT TGC G)): 56.5 °C
- Tm ([7]; B = C): 43.0 °C
- ΔTm ([7]; B = C): (−13.0) ° C.
- Tm ([7]; B = G): 46.5 °C
- ΔTm ([7]; B = G): (−10.0) ° C.
- Tm ([7]; B = T): 48.5 °C
- ΔTm ([7]; B = T): (−8.0) ° C.

Molecule: ON13: 5′-CG CAA AP′A AAC GC (DNA CGCAAANAAACGC; modified nucleotide P', chemistry not fully specified)
- discrimination factor Im/Imm, range [8]: 3.4-14.1

Molecule: V1′: TFO TTT TT^mC TBT ^mCT^mC T^mCT, B = V′ (DNA TTTTTNTNTNTNTNT; 5-methyl-C, modified nucleotide V', chemistry not fully specified)
- Tm of triplex [2]: 37.0 °C
- ΔTm/mod of triplex [2]: +8.0 °C
- Tm of triplex [3]: 46.0 °C
- Tm of triplex ([4]; C:G mismatch): 14.5 °C
- ΔTm ([4]; C:G mismatch): −31.5 °C
- Tm of triplex ([4]; G:C mismatch): 25.5 °C
- ΔTm ([4]; G:C mismatch): −20.5 °C
- Tm of triplex ([4]; T:A mismatch): 11.0 °C
- ΔTm ([4]; T:A mismatch): −36.0 °C
